In patent publication US20230416205A1, “COMPOUNDS, COMPOSITIONS, AND METHODS” (Denali Therapeutics Inc, priority 2020, published 2023):
pIC50: −log10 of the molar value. Where two headings read alike, the source gives them in different places.

Tested on: NLRP3
Experiment: IL-1β secretion assay in PMA-differentiated, LPS/nigericin-stimulated THP-1 cells (384-well, ELISA read-out)
Format: cell-based, human
Details: Homo sapiens
How it was run: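 Secreted IL-1β quantified by capture ELISA from supernatants of PMA-differentiated THP-1 cells (30K per well). Sequence: LPS 25 ng/mL priming 2 h, compound 1 h, nigericin 2 h; dose-responses normalized between high (LPS plus 5 μM nigericin) and low (LPS alone) controls.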

[1] = THP-1, IL-1β secretion, PMA-differentiated THP-1 cells, LPS then nigericin stimulation, ELISA read at 450 nm, read-out: Activity
[2] = THP-1, Table 4, IL-1β secretion, LPS/nigericin-stimulated THP-1 cells, read-out: IC50

SMILES	pIC50 [1]	pIC50 [2]
O=C(CN1CC2(CC2)c2cc(Br)ccc2C1=O)N1Cc2cccnc2C1 [Example 125, 6-bromo-2-[2-(5,7-dihydropyrrolo[3,4-b]pyridin-6-yl)-2-oxoethyl]spiro[3H-isoquinoline-4,1′-cyclopropane]-1-one]	< 4.82	4.57
Cn1nc(C2CC2)cc1NC(=O)CN1CC2(CC2)c2cc(Br)ccc2C1=O [Example 126, 2-(6-bromo-1-oxospiro[3H-isoquinoline-4,1′-cyclopropane]-2-yl)-N-(5-cyclopropyl-2-methylpyrazol-3-yl)acetamide]	< 4.82	4.81
O=C(CN1CC2(CC2)c2cc(Br)ccc2C1=O)Nc1ccccc1 [Example 127, 2-(6-bromo-1-oxospiro[3H-isoquinoline-4,1′-cyclopropane]-2-yl)-N-phenylacetamide]	> 5.00	5.78
O=C(CN1CC2(CC2)c2cc(Br)ccc2C1=O)NCCN1CCOCC1 [Example 128, 2-(6-bromo-1-oxospiro[3H-isoquinoline-4,1′-cyclopropane]-2-yl)-N-(2-morpholin-4-ylethyl)acetamide]	4.82 to 5.00	4.92
O=C(CN1CC2(CC2)c2cc(Br)ccc2C1=O)NC1Cc2ccccc2C1 [Example 129, 2-(6-bromo-1-oxospiro[3H-isoquinoline-4,1′-cyclopropane]-2-yl)-N-(2,3-dihydro-1H-inden-2-yl)acetamide]	> 5.00	5.14
O=C(CN1CC2(CC2)c2cc(Br)ccc2C1=O)Nc1ccc2ncccc2c1 [Example 130, 2-(6-bromo-1-oxospiro[3H-isoquinoline-4,1′-cyclopropane]-2-yl)-N-quinolin-6-ylacetamide]	> 5.00	5.91
O=C(CN1CC2(CC2)c2cc(Br)ccc2C1=O)Nc1cnc2ccccc2c1 [Example 131, 2-(6-bromo-1-oxospiro[3H-isoquinoline-4,1′-cyclopropane]-2-yl)-N-quinolin-3-ylacetamide]	> 5.00	5.11
O=C(CN1CC2(CC2)c2cc(Br)ccc2C1=O)NCC(O)c1ccc(F)cc1 (stereo not drawn) [Example 132, 2-(6-bromo-1-oxospiro[3H-isoquinoline-4,1′-cyclopropane]-2-yl)-N-[2-(4-fluorophenyl)-2-hydroxyethyl]acetamide]	< 4.82	4.53
O=C(CN1CC2(CC2)c2cc(Br)ccc2C1=O)NCCC(F)(F)F [Example 133, 2-(6-bromo-1-oxospiro[3H-isoquinoline-4,1′-cyclopropane]-2-yl)-N-(3,3,3-trifluoropropyl)acetamide]	> 5.00	5.03
CC(C)(C#N)NC(=O)CN1CC2(CC2)c2cc(Br)ccc2C1=O [Example 134, 2-(6-bromo-1-oxospiro[3H-isoquinoline-4,1′-cyclopropane]-2-yl)-N-(2-cyanopropan-2-yl)acetamide]	< 4.82	–
O=C(CN1CC2(CC2)c2cc(Br)ccc2C1=O)Nc1ccc2c(c1)CCO2 [Example 135, 2-(6-bromo-1-oxospiro[3H-isoquinoline-4,1′-cyclopropane]-2-yl)-N-(2,3-dihydro-1-benzofuran-5-yl)acetamide]	> 5.00	5.91
O=C(CN1CC2(CC2)c2cc(Br)ccc2C1=O)Nc1ccc2cnccc2c1 [Example 136, 2-(6-bromo-1-oxospiro[3H-isoquinoline-4,1′-cyclopropane]-2-yl)-N-isoquinolin-6-ylacetamide]	> 5.00	–
CS(=O)(=O)NCCNC(=O)CN1CC2(CC2)c2cc(Br)ccc2C1=O [Example 137, 2-(6-bromo-1-oxospiro[3H-isoquinoline-4,1′-cyclopropane]-2-yl)-N-[2-(methanesulfonamido)ethyl]acetamide]	< 4.82	4.66
COCCn1cc(NC(=O)CN2CC3(CC3)c3cc(Br)ccc3C2=O)cn1 [Example 138, 2-(6-bromo-1-oxospiro[3H-isoquinoline-4,1′-cyclopropane]-2-yl)-N-[1-(2-methoxyethyl)pyrazol-4-yl]acetamide]	< 4.82	4.69
CS(=O)(=O)CCNC(=O)CN1CC2(CC2)c2cc(Br)ccc2C1=O [Example 139, 2-(6-bromo-1-oxospiro[3H-isoquinoline-4,1′-cyclopropane]-2-yl)-N-(2-methylsulfonylethyl)acetamide]	< 4.82	4.58
O=C(CN1CC2(CC2)c2cc(Br)ccc2C1=O)Nc1ccc2ncsc2c1 [Example 140, N-(1,3-benzothiazol-6-yl)-2-(6-bromo-1-oxospiro[3H-isoquinoline-4,1′-cyclopropane]-2-yl)acetamide]	> 5.00	6.05
Cn1ncc2cc(NC(=O)CN3CC4(CC4)c4cc(Br)ccc4C3=O)ccc21 [Example 141, 2-(6-bromo-1-oxospiro[3H-isoquinoline-4,1′-cyclopropane]-2-yl)-N-(1-methylindazol-5-yl)acetamide]	> 5.00	5.91

SMILES	pIC50 [1]	pIC50 [2]
Cc1nc(-c2cccc(NC(=O)CN3CC4(CC4)c4cc(Br)ccc4C3=O)c2)cs1 [Example 142, 2-(6-bromo-1-oxospiro[3H-isoquinoline-4,1′-cyclopropane]-2-yl)-N-[3-(2-methyl-1,3-thiazol-4-yl)phenyl]acetamide]	> 5.00	5.75
Cc1nc2ccc(NC(=O)CN3CC4(CC4)c4cc(Br)ccc4C3=O)cc2s1 [Example 143, 2-(6-bromo-1-oxospiro[3H-isoquinoline-4,1′-cyclopropane]-2-yl)-N-(2-methyl-1,3-benzothiazol-6-yl)acetamide]	> 5.00	5.85
Cc1cc(NC(=O)CN2CC3(CC3)c3cc(Br)ccc3C2=O)n(C)n1 [Example 144, 2-(6-bromo-1-oxospiro[3H-isoquinoline-4,1′-cyclopropane]-2-yl)-N-(2,5-dimethylpyrazol-3-yl)acetamide]	> 5.00	5.41
O=C(CN1CC2(CC2)c2cc(Br)ccc2C1=O)Nc1nc2ccccc2[nH]1 [Example 145, N-(1H-benzimidazol-2-yl)-2-(6-bromo-1-oxospiro[3H-isoquinoline-4,1′-cyclopropane]-2-yl)acetamide]	> 5.00	5.58
O=C(CN1CC2(CC2)c2cc(Br)ccc2C1=O)Nc1ccc2scnc2c1 [Example 146, N-(1,3-benzothiazol-5-yl)-2-(6-bromo-1-oxospiro[3H-isoquinoline-4,1′-cyclopropane]-2-yl)acetamide]	> 5.00	5.56
Cn1cnc2cc(NC(=O)CN3CC4(CC4)c4cc(Br)ccc4C3=O)ccc21 [Example 147, 2-(6-bromo-1-oxospiro[3H-isoquinoline-4,1′-cyclopropane]-2-yl)-N-(1-methylbenzimidazol-5-yl)acetamide]	> 5.00	5.09
O=C(CN1CC2(CC2)c2cc(Br)ccc2C1=O)Nc1cccc2ccncc12 [Example 148, 2-(6-bromo-1-oxospiro[3H-isoquinoline-4,1′-cyclopropane]-2-yl)-N-isoquinolin-8-ylacetamide]	> 5.00	5.75
Cc1cc(NC(=O)CN2CC3(CC3)c3cc(Br)ccc3C2=O)n(-c2ccccc2)n1 [Example 149, 2-(6-bromo-1-oxospiro[3H-isoquinoline-4,1′-cyclopropane]-2-yl)-N-(5-methyl-2-phenylpyrazol-3-yl)acetamide]	> 5.00	5.18
Cc1cc(C)nc(NC(=O)CN2CC3(CC3)c3cc(Br)ccc3C2=O)c1 [Example 150, 2-(6-bromo-1-oxospiro[3H-isoquinoline-4,1′-cyclopropane]-2-yl)-N-(4,6-dimethylpyridin-2-yl)acetamide]	> 5.00	5.68
O=C(CN1CC2(CC2)c2cc(Br)ccc2C1=O)NCc1cccnc1C(F)(F)F [Example 151]	> 5.00	5.04
O=C(CN1CC2(CC2)c2cc(Br)ccc2C1=O)Nc1ccnn1-c1ccccc1 [Example 152, 2-(6-bromo-1-oxospiro[3H-isoquinoline-4,1′-cyclopropane]-2-yl)-N-(2-phenylpyrazol-3-yl)acetamide]	< 4.82	4.67
O=C(CN1CC2(CC2)c2cc(Br)ccc2C1=O)Nc1cncc2ccccc12 [Example 153, 2-(6-bromo-1-oxospiro[3H-isoquinoline-4,1′-cyclopropane]-2-yl)-N-isoquinolin-4-ylacetamide]	< 4.82	4.48
Cc1c[nH]c(=O)c(NC(=O)CN2CC3(CC3)c3cc(Br)ccc3C2=O)c1 [Example 154, 2-(6-bromo-1-oxospiro[3H-isoquinoline-4,1′-cyclopropane]-2-yl)-N-(5-methyl-2-oxo-1H-pyridin-3-yl)acetamide]	> 5.00	5.36
O=C(CN1CC2(CC2)c2cc(Br)ccc2C1=O)Nc1cccn2ccnc12 [Example 155, 2-(6-bromo-1-oxospiro[3H-isoquinoline-4,1′-cyclopropane]-2-yl)-N-imidazo[1,2-a]pyridin-8-ylacetamide]	> 5.00	5.44
O=C(CN1CC2(CC2)c2cc(Br)ccc2C1=O)Nc1cnc2[nH]ccc2c1 [Example 156, 2-(6-bromo-1-oxospiro[3H-isoquinoline-4,1′-cyclopropane]-2-yl)-N-(1H-pyrrolo[2,3-b]pyridin-5-yl)acetamide]	> 5.00	5.36
O=C(CN1CC2(CC2)c2cc(Br)ccc2C1=O)Nc1ccc2c(c1)OC(F)(F)O2 [Example 157, 2-(6-bromo-1-oxospiro[3H-isoquinoline-4,1′-cyclopropane]-2-yl)-N-(2,2-difluoro-1,3-benzodioxol-5-yl)acetamide]	> 5.00	5.00
O=C1c2ccc(Br)cc2C2(CC2)CN1CC(=O)N1CCc2cccnc21 [Example 158, 6-bromo-2-[2-(2,3-dihydropyrrolo[2,3-b]pyridin-1-yl)-2-oxoethyl]spiro[3H-isoquinoline-4,1′-cyclopropane]-1-one]	> 5.00	5.23
